Assay results: ChEMBL document CHEMBL3576790, “Novel Small Molecule Inhibitors of Activated Thrombin Activatable Fibrinolysis Inhibitor (TAFIa) from Natural Product Anabaenopeptin” (J Med Chem, 2015)
*1 amine or outer side, *2 acyl side, *3 side chain or, on linkers, in order; H or OH if unused. Where a SMILES comes first, the peptide text is derived from it. Bridges are numbered along the chain shown (N, C = ends). [ ]: non-standard residue; d: D form. hTyr = N[C@@H](CCc1ccc(O)cc1)C(=O)O; NMeA = CN[C@@H](C)C(=O)O; CO = O=C([*:1])[*:2]

Tests used:
Coagulation factor XI = Coagulation factor XI (Homo sapiens, UniProt P03951); assay: Inhibition of factor11a (unknown origin)
Carboxypeptidase A1 = target: T1, Carboxypeptidase A1 (Homo sapiens, UniProt P15085); assay: Inhibition of CPA (unknown origin)
T1 sequence (P15085 whole entry): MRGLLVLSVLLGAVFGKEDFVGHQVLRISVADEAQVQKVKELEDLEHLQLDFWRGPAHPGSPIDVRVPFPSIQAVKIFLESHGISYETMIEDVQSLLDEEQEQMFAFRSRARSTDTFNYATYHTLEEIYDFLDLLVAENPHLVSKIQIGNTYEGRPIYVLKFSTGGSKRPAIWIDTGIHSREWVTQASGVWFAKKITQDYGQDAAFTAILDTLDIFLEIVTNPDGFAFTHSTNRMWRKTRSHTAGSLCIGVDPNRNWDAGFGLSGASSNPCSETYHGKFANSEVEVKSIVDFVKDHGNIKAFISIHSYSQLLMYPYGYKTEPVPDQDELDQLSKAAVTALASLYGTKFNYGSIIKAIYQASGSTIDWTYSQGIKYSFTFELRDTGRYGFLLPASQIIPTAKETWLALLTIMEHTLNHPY

Prothrombin = Prothrombin (Homo sapiens, UniProt P00734); assay: Inhibition of factor2a (unknown origin)
Coagulation factor VII = target: T2, Coagulation factor VII (Homo sapiens, UniProt P08709); assay: Inhibition of factor7a (unknown origin)
T2 sequence (P08709 whole entry): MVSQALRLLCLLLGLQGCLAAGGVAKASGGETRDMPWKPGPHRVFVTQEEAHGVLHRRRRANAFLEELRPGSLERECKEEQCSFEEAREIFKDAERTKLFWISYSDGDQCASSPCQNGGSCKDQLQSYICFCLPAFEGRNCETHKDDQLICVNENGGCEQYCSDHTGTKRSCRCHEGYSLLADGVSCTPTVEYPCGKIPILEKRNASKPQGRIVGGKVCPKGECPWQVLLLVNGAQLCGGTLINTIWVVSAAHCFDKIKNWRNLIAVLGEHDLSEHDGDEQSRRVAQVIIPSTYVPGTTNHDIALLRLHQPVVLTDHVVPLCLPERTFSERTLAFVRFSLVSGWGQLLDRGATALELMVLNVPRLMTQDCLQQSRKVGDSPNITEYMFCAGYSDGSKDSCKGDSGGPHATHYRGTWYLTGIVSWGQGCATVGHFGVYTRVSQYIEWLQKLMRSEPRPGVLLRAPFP

Coagulation factor X = Coagulation factor X (Homo sapiens, UniProt P00742); assay: Inhibition of factor10a (unknown origin)
[1] = target: T3, Carboxypeptidase N catalytic chain (Homo sapiens, UniProt P15169); assay: Inhibition of CPN (unknown origin)
T3 sequence (P15169 whole entry): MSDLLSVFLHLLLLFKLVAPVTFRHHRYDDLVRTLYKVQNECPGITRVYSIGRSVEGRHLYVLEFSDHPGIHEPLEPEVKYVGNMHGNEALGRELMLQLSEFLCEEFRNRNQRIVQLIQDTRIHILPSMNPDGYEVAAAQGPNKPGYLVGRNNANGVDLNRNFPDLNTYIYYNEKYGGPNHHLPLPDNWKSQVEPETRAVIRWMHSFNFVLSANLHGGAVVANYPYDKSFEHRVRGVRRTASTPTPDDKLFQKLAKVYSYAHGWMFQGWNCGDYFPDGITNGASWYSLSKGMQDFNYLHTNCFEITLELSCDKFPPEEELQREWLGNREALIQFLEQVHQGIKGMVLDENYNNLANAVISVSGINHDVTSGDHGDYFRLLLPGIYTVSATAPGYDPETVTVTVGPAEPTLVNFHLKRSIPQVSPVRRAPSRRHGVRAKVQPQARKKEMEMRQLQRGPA

Carboxypeptidase B2 = target: T4, Carboxypeptidase B2 (Homo sapiens, UniProt Q96IY4)
T4 sequence (Q96IY4 whole entry): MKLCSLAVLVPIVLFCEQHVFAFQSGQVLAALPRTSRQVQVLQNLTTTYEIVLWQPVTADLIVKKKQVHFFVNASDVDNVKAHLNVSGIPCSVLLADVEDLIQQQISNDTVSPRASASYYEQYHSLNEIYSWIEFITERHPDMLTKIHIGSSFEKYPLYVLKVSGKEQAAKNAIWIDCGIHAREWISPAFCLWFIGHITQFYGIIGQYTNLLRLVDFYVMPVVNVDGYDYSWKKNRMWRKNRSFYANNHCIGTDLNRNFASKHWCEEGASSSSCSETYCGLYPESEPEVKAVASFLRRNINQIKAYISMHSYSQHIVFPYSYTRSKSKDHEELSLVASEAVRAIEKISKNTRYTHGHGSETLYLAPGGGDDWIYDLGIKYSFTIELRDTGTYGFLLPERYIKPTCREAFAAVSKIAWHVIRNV
Description: Inhibition of human activated TAFI incubated for 15 mins by microtiter plate reader based assay

Chain of Coagulation factor X (P00742 41-179 limits assumed): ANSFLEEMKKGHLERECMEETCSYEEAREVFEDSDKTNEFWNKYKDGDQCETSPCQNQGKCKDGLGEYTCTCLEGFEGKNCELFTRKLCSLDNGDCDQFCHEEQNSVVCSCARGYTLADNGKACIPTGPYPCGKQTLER
Chain of Coagulation factor X (P00742 235-488 limits assumed): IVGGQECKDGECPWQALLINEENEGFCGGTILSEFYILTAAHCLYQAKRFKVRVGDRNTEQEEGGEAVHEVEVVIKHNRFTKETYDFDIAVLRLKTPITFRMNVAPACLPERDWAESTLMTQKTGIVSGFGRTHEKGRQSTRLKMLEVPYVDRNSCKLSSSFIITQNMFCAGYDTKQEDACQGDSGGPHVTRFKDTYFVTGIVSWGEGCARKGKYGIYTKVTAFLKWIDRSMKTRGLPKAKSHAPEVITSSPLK
Chain of Coagulation factor XI (P03951 19-387 limits assumed): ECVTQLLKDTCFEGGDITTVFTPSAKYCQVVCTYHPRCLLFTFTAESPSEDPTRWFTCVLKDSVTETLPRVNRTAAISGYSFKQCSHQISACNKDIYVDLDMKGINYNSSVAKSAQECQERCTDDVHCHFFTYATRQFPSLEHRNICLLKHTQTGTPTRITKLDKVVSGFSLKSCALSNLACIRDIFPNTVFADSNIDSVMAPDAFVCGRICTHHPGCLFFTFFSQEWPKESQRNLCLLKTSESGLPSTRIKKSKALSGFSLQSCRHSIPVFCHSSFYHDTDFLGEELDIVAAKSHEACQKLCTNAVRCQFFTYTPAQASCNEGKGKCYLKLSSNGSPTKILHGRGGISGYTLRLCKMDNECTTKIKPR
Chain of Coagulation factor XI (P03951 388-625 limits assumed): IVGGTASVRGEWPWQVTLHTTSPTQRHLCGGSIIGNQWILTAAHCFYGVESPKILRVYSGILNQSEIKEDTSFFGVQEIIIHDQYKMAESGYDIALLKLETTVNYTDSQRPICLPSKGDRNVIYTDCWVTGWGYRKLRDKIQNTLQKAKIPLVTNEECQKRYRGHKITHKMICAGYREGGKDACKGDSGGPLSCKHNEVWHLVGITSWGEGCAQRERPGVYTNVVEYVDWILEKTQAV

CC(C)[C@@H]1NC(=O)[C@H](NC(=O)N[C@@H](CCCCN)C(=O)O)CCCCNC(=O)[C@H](Cc2ccccc2)NC(=O)[C@H](C)N(C)C(=O)[C@H](CCc2ccc(O)cc2)NC1=O was tested, and the IC50 (Coagulation factor XI) was 12 µM, the IC50 (Carboxypeptidase A1) was > 100 µM and the IC50 (Prothrombin) was 6 µM. The IC50 (Coagulation factor VII) was > 100 µM, the IC50 (Coagulation factor X) was > 100 µM and the IC50 [1] was 5.7 µM.
With CC(C)C[C@@H](NC(=O)N[C@@H](CCCCN)C(=O)O)C(=O)NC1CC2(C)CCC1C2(C)C (single isomer, unassigned; (+)) the IC50 (Carboxypeptidase B2) was 0.057 µM.
With CC12CCC(C(NC(=O)[C@@H](CC3CCCCC3)NC(=O)N[C@@H](CS(=O)(=O)CCN)C(=O)O)C1)C2(C)C (stereo partly specified) the IC50 (Carboxypeptidase B2) was 0.038 µM.
In the case of CC12CCC(C(NC(=O)[C@@H](CC3CCCCC3)NC(=O)N[C@H](Cc3ccc(N)nc3)C(=O)O)C1)C2(C)C (stereo partly specified), the IC50 (Carboxypeptidase B2) is reported as 0.25 µM.
Work on CC(C)CCNC(=O)[C@@H](CCCCNC(=O)OCc1ccccc1)NC(=O)N[C@@H](CCCCN)C(=O)O yielded an IC50 (Carboxypeptidase B2) of 1.4 µM.
Work on CC(C)(NC(=O)N[C@@H](CCCCN)C(=O)O)C(=O)NC1CC2(C)CCC1C2(C)C (stereo partly specified) yielded an IC50 (Carboxypeptidase B2) of 6.1 µM.
With CC(C)[C@@H]1NC(=O)[C@H](NC(=O)N[C@@H](CCCNC(=N)N)C(=O)O)CCCCNC(=O)[C@H](Cc2ccccc2)NC(=O)[C@H](C)N(C)C(=O)[C@H](CCc2ccc(O)cc2)NC1=O [ANABAENOPEPTIN B] ({Arg-CO}-[dK]V[hTyr][NMeA]F; lactam 1-C) the IC50 (Coagulation factor XI) was 24 µM, the IC50 (Prothrombin) was 1.6 µM and the IC50 (Coagulation factor VII) was > 100 µM. For the same molecule, the IC50 (Coagulation factor X) was > 100 µM.
In the case of CC12CCC(C(NC(=O)[C@@H](Cc3ccccc3)NC(=O)N[C@@H](CCCCN)C(=O)O)C1)C2(C)C (single isomer, unassigned; (+)), the IC50 (Carboxypeptidase B2) is reported as 0.015 µM.
With CC12CCC(C(NC(=O)[C@@H](CC3CCCCC3)NC(=O)N[C@H](C#N)Cc3ccc(N)nc3)C1)C2(C)C (stereo partly specified) the IC50 (Carboxypeptidase B2) was 54 µM.
CC12CCC(C(NC(=O)[C@@H](CC3CCCCC3)NC(=O)N[C@@H](Cc3ccc(N)nc3)C(N)=O)C1)C2(C)C (stereo partly specified) gave an IC50 (Carboxypeptidase B2) of 0.57 µM.
Molecule CCC[C@@H](NC(=O)N[C@@H](CCCCN)C(=O)O)C(=O)NC1CC2(C)CCC1C2(C)C (stereo partly specified) has an IC50 (Carboxypeptidase B2) of 0.015 µM.
With NCCCC[C@H](NC(=O)N[C@H](CC1CCCCC1)C(=O)NCC(c1ccccc1)c1ccccc1)C(=O)O the IC50 (Carboxypeptidase B2) was 0.12 µM.
CC12CCC(C(NC(=O)[C@@H](CC3CCCCC3)NC(=O)N[C@@H](Cc3ccc(N)nc3)C(=O)O)C1)C2(C)C (stereo partly specified) showed an IC50 (Carboxypeptidase B2) of 0.001 µM.
In the case of CC[C@H](C)[C@@H]1NC(=O)[C@H](NC(=O)N[C@@H](CCCNC(=N)N)C(=O)O)CCCCNC(=O)[C@H](Cc2ccccc2)NC(=O)[C@H](C)N(C)C(=O)[C@H](CCc2ccc(O)cc2)NC1=O [ANABAENOPEPTIN F] ({Arg-CO}-[dK]I[hTyr][NMeA]F; lactam 1-C), the IC50 (Coagulation factor XI) is reported as 3.9 µM, the IC50 (Prothrombin) is reported as 0.35 µM and the IC50 (Coagulation factor VII) is reported as 35 µM. For the same molecule, the IC50 (Coagulation factor X) was 38 µM.
For CC12CCC(C(NC(=O)[C@H](NC(=O)N[C@@H](CCCCN)C(=O)O)C3CCCCC3)C1)C2(C)C (stereo partly specified), the IC50 (Carboxypeptidase B2) was 1 µM.
